According to BindingDB's records for PubMed 35124530 (Tsinghua University, 2022):

Test: Antagonist activity at CXCR4 receptor in human SUP-T1 cells assessed as reduction in SDF-1alpha-stimulated cell migration and measured by CellTiter-96 assay

N=C(N)NCCC[C@H](NCc1ccccn1)C(=O)NCc1ccc(CNCCCNC2CCCCC2)cc1
IC50: 236 nM
